Reference: patent US9040523B2, “Antifungal 5,6-dihydro-4H-pyrrolo[1,2-α][1,4]-benzodiazepines and 6H-pyrrolo[1,2-α][1,4]benzodiazepines substituted with benzene derivatives” (JANSSEN PHARMACEUTICA NV, priority 2010, dated 2015)
pIC50: −log10 of the molar value.

Columns and labels:
Cytochrome P450 1A2 = molecular target: T1, Cytochrome P450 1A2 (Homo sapiens, UniProt P05177); test: Human liver microsomal cytochrome P450 cocktail inhibition assay, Protocol C
T1 sequence (P05177 1-516): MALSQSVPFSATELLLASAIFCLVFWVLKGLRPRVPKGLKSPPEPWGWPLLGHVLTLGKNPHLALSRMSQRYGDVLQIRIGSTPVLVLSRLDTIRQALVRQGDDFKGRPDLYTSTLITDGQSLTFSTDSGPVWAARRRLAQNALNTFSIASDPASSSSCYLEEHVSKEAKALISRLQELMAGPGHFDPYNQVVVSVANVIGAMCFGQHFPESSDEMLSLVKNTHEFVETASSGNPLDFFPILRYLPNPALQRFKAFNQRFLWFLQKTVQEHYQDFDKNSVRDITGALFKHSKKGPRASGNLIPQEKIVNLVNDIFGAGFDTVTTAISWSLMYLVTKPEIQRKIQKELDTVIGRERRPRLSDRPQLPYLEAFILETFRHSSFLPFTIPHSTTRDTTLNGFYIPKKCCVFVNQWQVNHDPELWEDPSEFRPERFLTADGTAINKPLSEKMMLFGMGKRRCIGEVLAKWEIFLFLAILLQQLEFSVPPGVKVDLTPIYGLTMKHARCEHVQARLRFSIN
Experimental: (§1) Probe substrates and final assay concentrations with the appropriate internal standard are outlined in Table 6a.
(§2) Assays were performed in 0.1 M phosphate buffer (pH 7.4), containing 0.2 mg/ml human liver microsomes (BD Gentest) and a probe substrate mix consisting of: phenacetin, tolbutamide, S-mephenyloin, dextromethorphan, amodiaquine and midazolam (Table 6a) and a range of test compound concentrations (0 to 30 micromolar) in a total volume of 100 microliters. After a 10 min pre-incubation at 37° C., the reaction was started with addition of NADPH at a final concentration of 1.0 mM. […] The samples are centrifuged for 10 min at 4° C. at 4000 rpm and 60 microliters supernatant is diluted with 180 microliters water. Each sample is injected onto a UPLC/MS system for the simultaneous measurement of the probe substrate metabolites and their associated deuterated internal standards. Percentage inhibition is calculated according to: %-inhibition=(1−Ri/R)*100, whereby Ri and R are the metabolite to internal standard peak area ratios in the presence and absence of inhibitor respectively.
(§3) Percentage inhibition data are plotted against the Log transformed test compound concentration and after curve fitting the IC50-value is determined.

Cytochrome P450 2C9 = Cytochrome P450 2C9 (Homo sapiens, UniProt P11712); test: as above; conditions: 2C9 Tolbut pIC50, human liver microsomes 0.2 mg/ml; probe tolbutamide 100 microM
Cytochrome P450 2C9, sequence (P11712 whole entry): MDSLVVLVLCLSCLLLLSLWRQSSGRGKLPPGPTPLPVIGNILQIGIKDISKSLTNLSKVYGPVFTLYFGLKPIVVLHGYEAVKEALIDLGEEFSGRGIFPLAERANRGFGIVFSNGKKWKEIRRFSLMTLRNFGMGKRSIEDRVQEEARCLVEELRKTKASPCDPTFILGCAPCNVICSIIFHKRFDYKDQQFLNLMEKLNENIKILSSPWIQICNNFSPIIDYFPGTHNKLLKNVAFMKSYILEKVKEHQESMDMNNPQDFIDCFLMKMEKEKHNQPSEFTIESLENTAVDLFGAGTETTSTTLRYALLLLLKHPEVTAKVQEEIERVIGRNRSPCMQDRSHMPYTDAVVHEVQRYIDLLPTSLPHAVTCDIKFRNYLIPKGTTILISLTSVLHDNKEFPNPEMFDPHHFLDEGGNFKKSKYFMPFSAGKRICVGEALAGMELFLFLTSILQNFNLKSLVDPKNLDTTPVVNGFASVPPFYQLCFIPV
Experimental: as §1, §2, §3

Cytochrome P450 2D6 = Cytochrome P450 2D6 (Homo sapiens, UniProt P10635); test: as above; conditions: 2D6_Dextro pIC50, human liver microsomes 0.2 mg/ml; probe dextromethorphan 3 microM
Cytochrome P450 2D6, sequence (P10635 whole entry): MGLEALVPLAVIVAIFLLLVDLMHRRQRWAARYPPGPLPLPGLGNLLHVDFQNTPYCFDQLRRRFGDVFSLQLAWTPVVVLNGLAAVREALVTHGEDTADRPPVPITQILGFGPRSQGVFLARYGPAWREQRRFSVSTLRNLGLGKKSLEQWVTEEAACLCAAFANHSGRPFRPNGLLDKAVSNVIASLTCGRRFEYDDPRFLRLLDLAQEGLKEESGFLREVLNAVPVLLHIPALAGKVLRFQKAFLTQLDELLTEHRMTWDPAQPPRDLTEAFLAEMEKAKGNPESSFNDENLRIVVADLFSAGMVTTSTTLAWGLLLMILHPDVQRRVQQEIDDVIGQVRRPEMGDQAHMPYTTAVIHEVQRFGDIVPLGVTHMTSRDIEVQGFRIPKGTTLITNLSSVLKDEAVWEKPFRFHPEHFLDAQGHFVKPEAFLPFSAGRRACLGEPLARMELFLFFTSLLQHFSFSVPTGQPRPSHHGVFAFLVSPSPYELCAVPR
Experimental: as §1, §2, §3

Cytochrome P450 2C19 = Cytochrome P450 2C19 (Homo sapiens, UniProt P33261); test: as above; conditions: 2C19_S-Meph pIC50, human liver microsomes 0.2 mg/ml; probe S-mephenytoin 30 microM
Cytochrome P450 2C19, sequence (P33261 whole entry): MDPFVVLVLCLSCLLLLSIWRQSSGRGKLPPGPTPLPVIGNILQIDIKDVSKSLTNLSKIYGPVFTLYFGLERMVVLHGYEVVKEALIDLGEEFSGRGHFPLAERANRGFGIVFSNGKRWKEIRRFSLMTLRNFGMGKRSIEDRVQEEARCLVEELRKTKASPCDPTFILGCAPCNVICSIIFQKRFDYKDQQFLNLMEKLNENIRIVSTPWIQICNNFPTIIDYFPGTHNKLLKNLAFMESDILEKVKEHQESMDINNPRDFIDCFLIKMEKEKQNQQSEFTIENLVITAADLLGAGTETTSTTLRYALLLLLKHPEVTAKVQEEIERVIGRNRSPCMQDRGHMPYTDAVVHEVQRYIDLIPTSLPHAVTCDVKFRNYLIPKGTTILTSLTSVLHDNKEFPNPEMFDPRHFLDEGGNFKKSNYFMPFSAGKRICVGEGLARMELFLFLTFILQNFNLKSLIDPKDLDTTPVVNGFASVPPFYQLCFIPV
Experimental: as §1, §2, §3

[1] = test system: Aspergillus fumigatus B42928; test: Antifungal activity in vitro (resazurin susceptibility screen), Inf. E; assay type: cell-based; conditions: Aspergillus fumigatus B42928; 27 °C, 48 hours, resa time 17 hours; read-out: Inf. E pIC50 (converted)
Experimental: (§4) The standard susceptibility screen was performed in 96-well plates (U-bottom, Greiner Bio-One). […] These serial dilutions (10 n1) were then spotted onto test-plates that could be stored in the dark at 4° C. for a maximum period of 2 weeks. […] The different fungal species/isolates (Table 3a) were cryopreserved and 1/1000 diluted in medium just prior to use. A standard inoculum of 200 μl containing 10^3 colony-forming unit (cfu) was then added to each well. A positive control (100% growth=fungal culture without antifungal) and a negative control (0% growth ═RPMI-MOPS medium) were included on each plate. […] [table]

[2] = Liver metabolic stability assay, gpLM; assay type: in vitro ADME, guinea pig
Experimental: (§5) Liver preparations (microsomal fractions) were obtained from BD Gentest (San Jose, Calif., US). Metabolic stability was assessed using the following assay conditions. […] The mixture was pre-incubated at 37° C. for 5 min and the enzymatic reaction was started by addition of 5 μM test compound. After 0 (control) and 15 minutes (min), the reactions were terminated by addition of […] (500 μl). The precipitated material was removed by centrifugation at 1200 g for 10 min. The supernatant was analysed by LC-MS/MS on a ThermoFinnigan LCQ Deca XP ion-trap mass spectrometer equipped with an atmospheric pressure chemical ionisation source. Calculation of %-compound remaining was as described by Kantharaj et al. 2003 ((Kantharaj E., Tuytelaars A, Proost P E A, Ongel Z, van […] (2003). Simultaneous measurement of drug metabolic stability and identification of metabolites using ion-trap mass spectrometry.

[3] = Liver metabolic stability assay, hLM; assay type: in vitro ADME, human
Experimental: as §5

[4] = test system: Candida parapsilosis B66126; test: Antifungal activity in vitro (resazurin susceptibility screen), Inf. D; assay type: cell-based; conditions: Lodderomyces parapsilosis; Candida parapsilosis B66126; 37 °C, 24 hours, resa time 4 hours; read-out: Inf. D pIC50 (converted)
Experimental: (§6) The standard susceptibility screen was performed in 96-well plates (U-bottom, Greiner Bio-One). […] These serial dilutions (10 n1) were then spotted onto test-plates that could be stored in the dark at 4° C. for a maximum period of 2 weeks. […] A standard inoculum of 200 μl containing 10^3 colony-forming unit (cfu) was then added to each well. A positive control (100% growth=fungal culture without antifungal) and a negative control (0% growth ═RPMI-MOPS medium) were included on each plate.

[5] = test system: Trichophyton mentagrophytes B70554; test: Antifungal activity in vitro (resazurin susceptibility screen), Inf. G; assay type: cell-based; conditions: Trichophyton mentagrophytes, B70554, Trichophyton mentagrophytes B70554; 27 °C, 7 days, resa time 24 hours; read-out: Inf. G pIC50 (converted)
Experimental: as §6

[6] = test system: Sporothrix schenkii B62482; test: Antifungal activity in vitro (resazurin susceptibility screen), Inf. A; assay type: cell-based; conditions: Sporothrix, B62482, Sporothrix schenkii B62482; 27 °C, 4 days, resa time 24 hours; highest in-test concentration 64 μM; read-out: Inf. A pIC50 (converted)
Experimental: as §4

[7] = test system: Trichophyton rubrum B68183; test: Antifungal activity in vitro (resazurin susceptibility screen), Inf. C; assay type: cell-based; conditions: Trichophyton rubrum B68183; 27 °C, 7 days, resa time 24 hours; read-out: Inf. C pIC50 (converted)
Experimental: as §4

CYP3A4 = CYP3A4 (Homo sapiens, UniProt P08684); test: Cytochrome P450 inhibition, Protocol A, cDNA expressed proteins, fluorogenic substrates; assay type: in vitro ADME
CYP3A4, sequence (P08684 whole entry): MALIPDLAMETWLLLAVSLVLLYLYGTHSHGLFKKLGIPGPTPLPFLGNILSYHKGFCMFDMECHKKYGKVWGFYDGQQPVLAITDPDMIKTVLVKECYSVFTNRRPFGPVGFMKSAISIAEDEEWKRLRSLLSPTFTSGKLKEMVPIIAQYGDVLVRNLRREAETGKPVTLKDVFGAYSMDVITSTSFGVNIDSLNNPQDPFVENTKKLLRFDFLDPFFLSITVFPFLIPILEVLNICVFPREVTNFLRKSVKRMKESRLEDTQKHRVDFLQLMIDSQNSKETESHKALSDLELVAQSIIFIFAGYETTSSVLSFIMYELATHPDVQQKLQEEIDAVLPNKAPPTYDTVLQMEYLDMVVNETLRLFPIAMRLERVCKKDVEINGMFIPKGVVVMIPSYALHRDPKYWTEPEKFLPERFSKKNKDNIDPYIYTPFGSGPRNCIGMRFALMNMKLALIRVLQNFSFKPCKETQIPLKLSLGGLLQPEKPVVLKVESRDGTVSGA
Experimental: (§7) All fluorogenic based assays were performed in Black Costar 96-well plates according to Crespi et al 1997 with minor modifications (Crespi C L, Miller V P & Penman B W (1997). Microtiter plate assays for inhibition of human, drug-metabolizing cytochromes P450. Anal. Biochem. Vol 248, 1898-1900). Assay conditions are outlined in Table 5a. For cytochrome P450 3A4, three different fluorogenic substrates were used. Each reaction mixture consisted of the appropriate concentration of enzyme, NADPH-generating system (“NADPH” means β-nicotinamide adenine dinucleotide phosphate, reduced), substrate in sodium/potassium buffer (pH 7.4). For each cytochrome P450 batch Michealis-Menten kinetics were determined using 11 concentrations.
(§8) Thereafter, further dilutions were made in acetonitrile. […] The compounds were serially diluted to give final concentrations ranging from 1 nM to 10 μM. The reaction mixtures, whereby 1 μL of buffer was replaced by compound solution, were pre-warmed for 5 min at 37° C. and the reaction was initiated by the addition of β-nicotinamide adenine dinucleotide phosphate (NADP+). Reactions were terminated by addition of stopping reagent and the fluorescence was measured using a Fluoroscan (Labsystems, Brussel, Belgium).
(§9) In Table 5a, the following abbreviations were used: 3-cyano-7-ethocycoumarin (CEC), 7-methoxy-4-trifluoromethylcoumarin (MFC), 3-[2-(N,N-diethyl-N-methylamino)ethyl]-7-methoxy-4-methylcoumarin (AMMC), 7-benzyloxy-trifluoromethyl coumarin (BFC), 7-benzyloxyquinoline (BQ) and dibenzyl fluorescein (DBF).

[8] = test system: Cryptococcus neoformans B66663; test: Antifungal activity in vitro (resazurin susceptibility screen), Inf. F; assay type: cell-based; conditions: Cryptococcus neoformans, B66663, Cryptococcus neoformans B66663; 37 °C, 24 hours, resa time 4 hours; read-out: Inf. F pIC50 (converted)
Experimental: as §4

Microsporum canis B68128 = test: Antifungal activity in vitro (resazurin susceptibility screen), Inf. B; assay type: cell-based; conditions: Microsporum canis, B68128, Microsporum canis B68128; 27 °C, 9 days, resa time 24 hours; read-out: Inf. B pIC50 (converted)
Experimental: as §6

CYP2C9 = CYP2C9 (Homo sapiens, UniProt P11712); test: Cytochrome P450 inhibition, Protocol A, cDNA expressed proteins, fluorogenic substrate; assay type: in vitro ADME
CYP2C9, sequence (P11712 whole entry): as the sequence (P11712 whole entry) above
Experimental: as §7, §8, §9

CYP1A2 = molecular target: T2, CYP1A2 (Homo sapiens, UniProt P05177); test: as above; assay type: in vitro ADME
T2 sequence (P05177 1-516): T1 sequence (P05177 1-516)
Experimental: as §7, §8, §9

CYP2D6 = CYP2D6 (Homo sapiens, UniProt P10635); test: as above; assay type: in vitro ADME
CYP2D6, sequence (P10635 whole entry): as the sequence (P10635 whole entry) above
Experimental: as §7, §8, §9

Cytochrome P450 2C8 = molecular target: T3, Cytochrome P450 2C8 (Homo sapiens, UniProt P10632); test: Human liver microsomal cytochrome P450 cocktail inhibition assay, Protocol C; assay type: in vitro ADME; conditions: human liver microsomes 0.2 mg/ml; probe amodiaquine 2 microM; read-out: 2C8_Amod pIC50 (converted)
T3 construct: tissue BD Gentest; host or cells: human liver microsomes
T3 sequence (P10632 1-490): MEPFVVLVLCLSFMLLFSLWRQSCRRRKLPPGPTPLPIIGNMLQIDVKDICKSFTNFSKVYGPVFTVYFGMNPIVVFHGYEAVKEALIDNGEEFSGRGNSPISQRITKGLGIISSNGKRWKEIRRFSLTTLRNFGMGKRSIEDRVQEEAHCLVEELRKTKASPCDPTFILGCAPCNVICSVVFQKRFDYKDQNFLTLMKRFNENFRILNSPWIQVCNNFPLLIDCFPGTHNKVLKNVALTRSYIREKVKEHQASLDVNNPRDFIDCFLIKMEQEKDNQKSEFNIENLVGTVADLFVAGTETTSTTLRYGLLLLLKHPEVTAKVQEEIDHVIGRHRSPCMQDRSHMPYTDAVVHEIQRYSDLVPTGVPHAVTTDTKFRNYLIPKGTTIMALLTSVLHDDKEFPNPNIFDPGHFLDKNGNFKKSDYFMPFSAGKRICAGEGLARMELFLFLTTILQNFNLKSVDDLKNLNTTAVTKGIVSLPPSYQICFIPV
Experimental: as §1, §2, §3

| Compound | pIC50 (Cytochrome P450 1A2) | pIC50 (Cytochrome P450 2C9) | pIC50 (Cytochrome P450 2D6) | pIC50 (Cytochrome P450 2C19) | IC50 [1] | IC50 [4] | IC50 [5] | IC50 [6] | IC50 [7] | IC50 [8] | IC50 (Microsporum canis B68128) | other results |
| --- | --- | --- | --- | --- | --- | --- | --- | --- | --- | --- | --- | --- |
| CCc1cccc(C2NCc3c(Cl)cccc3-n3cccc32)c1 (stereo not shown) | < 5.00 | 5.20 | 5.70 | 5.90 |  |  |  |  |  |  |  |  |
| CC(=O)c1cc(C2NCc3c(Cl)cc(Cl)cc3-n3cccc32)ccc1F (stereo not shown) [Compound 13, 1-[5-(7,9-dichloro-5,6-dihydro-4H-pyrrolo[1,2-a][1,4]benzodiazepin-4-yl)-2-fluorophenyl]-ethanone] |  |  |  |  | > 63.1 µM | > 63.1 µM | > 63.1 µM | > 63.1 µM | 2 µM | > 63.1 µM | 7.94 µM | %-compound metabolised Met_gpLM ([2]; guinea pig, microsomes, 0.25 h, 5 μM, pH 7.4): 95%; %-compound metabolised_Met_hLM ([3]; human, microsomes, 0.25 h, 5 μM, pH 7.4): 69%; hCYP3A4_BFC_Pct_Inh (CYP3A4; human, 10 μM, pH 7.4): 81%; hCYP3A4_BQ_Pct_Inh (CYP3A4; human, 10 μM, pH 7.4): 78%; hCYP3A4_DBF_Pct_Inh (CYP3A4; human, 10 μM, pH 7.4): 91%; hCYP2C9_MFC_Pct_Inh (CYP2C9; human, 10 μM, pH 7.4): 61%; hCYP1A2_CEC_Pct_Inh (CYP1A2; human, 10 μM, pH 7.4): 64%; hCYP2D6_AMMC_Pct_Inh (CYP2D6; human, 10 μM, pH 7.4): 51% |
| CC(=O)c1cc(C2=NCc3c(Cl)cc(Cl)cc3-n3cccc32)ccc1F [Compound 23, 1-[5-(7,9-dichloro-6H-pyrrolo[1,2-a][1,4]benzodiazepin-4-yl)-2-fluorophenyl]-ethanone] |  |  |  |  | > 63.1 µM | > 63.1 µM | > 63.1 µM | > 63.1 µM | > 63.1 µM | > 63.1 µM | > 63.1 µM | %-compound metabolised Met_gpLM ([2]; guinea pig microsomes, 1 mg protein/ml, 5 μM test compound, 15 min, 37 °C): 39%; %-compound metabolised_Met_hLM ([3]; human liver microsomes, 1 mg protein/ml, 5 μM test compound, 15 min, 37 °C): 22%; hCYP3A4_BFC_Pct_Inh (CYP3A4; % inhibition at 10 μM, substrate BFC, cDNA expressed protein): 51%; hCYP3A4_BQ_Pct_Inh (CYP3A4; % inhibition at 10 μM, substrate BQ, cDNA expressed protein): 56%; hCYP3A4_DBF_Pct_Inh (CYP3A4; % inhibition at 10 μM, substrate DBF, cDNA expressed protein): 40%; melting point: 192.3 to 193.4 °C; hCYP2C9_MFC_Pct_Inh (CYP2C9; % inhibition at 10 μM, substrate MFC, cDNA expressed protein): 51%; hCYP1A2_CEC_Pct_Inh (CYP1A2; % inhibition at 10 μM, substrate CEC, cDNA expressed protein): 17%; hCYP2D6_AMMC_Pct_Inh (CYP2D6; % inhibition at 10 μM, substrate AMMC, cDNA expressed protein): 3% |
| CC(=O)c1ccc(C2=NCc3c(Cl)cccc3-n3cccc32)cc1 [drawing 91] | < 5.00 | < 5.00 | < 5.00 | < 5.00 |  |  |  |  |  |  |  | IC50 (Cytochrome P450 2C8): > 10 µM |
